# The source made the active and inactive calls. The rule behind the calls is not given here.
# What was measured:
# [1] = target: T1, Peroxisome proliferator-activated receptor delta (Homo sapiens) (UniProt Q03181); conditions: CV-1, 30 uM
# T1 sequence (whole entry): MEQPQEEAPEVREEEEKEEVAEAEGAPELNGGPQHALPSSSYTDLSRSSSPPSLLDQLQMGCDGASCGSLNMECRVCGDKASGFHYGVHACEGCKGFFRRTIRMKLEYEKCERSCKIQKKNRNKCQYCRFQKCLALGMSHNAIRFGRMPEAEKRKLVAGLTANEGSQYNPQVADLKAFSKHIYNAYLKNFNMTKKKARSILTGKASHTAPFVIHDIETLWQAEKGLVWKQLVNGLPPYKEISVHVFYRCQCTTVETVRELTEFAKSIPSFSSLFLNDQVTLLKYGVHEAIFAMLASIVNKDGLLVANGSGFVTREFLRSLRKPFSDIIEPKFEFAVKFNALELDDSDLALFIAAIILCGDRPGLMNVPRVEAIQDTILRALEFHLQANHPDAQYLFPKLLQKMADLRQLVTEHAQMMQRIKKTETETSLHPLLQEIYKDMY
# [2] = target: T2, Peroxisome proliferator-activated receptor alpha (Homo sapiens) (UniProt Q07869); assay: Transactivation of human PPARalpha expressed in african green monkey CV1 cells at 30 uM by luciferase reporter gene assay relative to Wy14643; assay type: cell-based; conditions: CV-1
# T2 sequence (whole entry): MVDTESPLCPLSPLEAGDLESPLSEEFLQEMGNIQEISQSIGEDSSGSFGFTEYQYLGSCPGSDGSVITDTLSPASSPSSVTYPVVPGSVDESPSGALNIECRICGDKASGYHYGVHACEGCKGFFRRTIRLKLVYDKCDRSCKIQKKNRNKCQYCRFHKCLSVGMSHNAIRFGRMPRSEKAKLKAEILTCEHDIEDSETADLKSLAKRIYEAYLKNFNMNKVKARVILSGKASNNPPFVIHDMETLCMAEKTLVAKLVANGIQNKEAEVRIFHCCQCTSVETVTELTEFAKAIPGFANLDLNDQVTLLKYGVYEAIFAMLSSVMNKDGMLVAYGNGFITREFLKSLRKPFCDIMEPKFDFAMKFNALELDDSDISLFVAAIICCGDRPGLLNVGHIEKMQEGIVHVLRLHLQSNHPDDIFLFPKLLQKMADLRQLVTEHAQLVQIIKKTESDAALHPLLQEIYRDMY
# [3] = target: T3, Peroxisome proliferator-activated receptor gamma (Homo sapiens) (UniProt P37231); assay: Transactivation of human PPARgamma expressed in african green monkey CV1 cells at 30 uM by luciferase reporter gene assay relative to […]; assay type: cell-based; conditions: CV-1
# T3 sequence (whole entry): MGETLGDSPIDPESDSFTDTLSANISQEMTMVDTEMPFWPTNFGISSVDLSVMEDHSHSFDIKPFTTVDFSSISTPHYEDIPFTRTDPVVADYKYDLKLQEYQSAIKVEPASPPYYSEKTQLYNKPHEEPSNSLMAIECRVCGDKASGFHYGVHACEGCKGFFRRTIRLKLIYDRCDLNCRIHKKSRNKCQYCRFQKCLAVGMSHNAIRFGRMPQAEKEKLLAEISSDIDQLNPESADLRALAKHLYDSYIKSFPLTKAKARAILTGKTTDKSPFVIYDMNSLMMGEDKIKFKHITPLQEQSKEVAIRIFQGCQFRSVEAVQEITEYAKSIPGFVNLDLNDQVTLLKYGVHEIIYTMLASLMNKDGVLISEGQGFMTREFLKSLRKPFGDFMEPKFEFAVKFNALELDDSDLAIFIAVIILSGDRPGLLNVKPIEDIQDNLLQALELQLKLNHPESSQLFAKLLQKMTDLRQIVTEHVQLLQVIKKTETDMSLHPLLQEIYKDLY
# [4] = target: T4, Peroxisome proliferator-activated receptor gamma (Homo sapiens, UniProt P37231); assay: Transactivation of human PPARgamma expressed in african green monkey CV1 cells by luciferase reporter gene assay; assay type: cell-based, CV-1
# T4 sequence (P37231 whole entry): T3 sequence (whole entry)
# [5] = target: T5, Peroxisome proliferator-activated receptor alpha (Homo sapiens, UniProt Q07869); assay: Binding affinity to GST-tagged human PPARalpha by TR-FRET analysis
# T5 sequence (Q07869 whole entry): T2 sequence (whole entry)
# [6] = target: T6, Peroxisome proliferator-activated receptor delta (Homo sapiens, UniProt Q03181); conditions: cv-1
# T6 sequence (Q03181 whole entry): T1 sequence (whole entry)
# [7] = target: T4, Peroxisome proliferator-activated receptor gamma
# [8] = target: T5, Peroxisome proliferator-activated receptor alpha; assay: Transactivation of human PPARalpha expressed in african green monkey CV1 cells by luciferase reporter gene assay; assay type: cell-based, CV-1
# 3T3-L1 [9] = assay: Induction of preadipocyte differentiation in mouse 3T3L1 cells assessed as increase in lipid droplet accumulation at 10 uM Oil Red O staining relative to control; assay type: functional, cell-based
# HepG2 [10] = assay: Increase in ACS mRNA expression in human HepG2 cells at 10 uM; assay type: functional, cell-based
# HepG2 [11] = assay: Increase in CPT1 mRNA expression in human HepG2 cells at 10 uM; assay type: functional, cell-based
# 3T3-L1 [12] = assay: Induction of preadipocyte differentiation in mouse 3T3L1 cells assessed as […] in lipid droplet accumulation at 10 uM Oil Red O staining; assay type: functional, cell-based
SMILES,Emax [1] [%],Emax [2] [%],Emax [3] [%],EC50 [4] [µM],IC50 [5] [nM],EC50 [6],IC50 [7] [nM],EC50 [8] [µM],Activity (3T3-L1 [9]),Activity (HepG2 [10]),Activity (HepG2 [11]),Activity (3T3-L1 [12])
CC(C)=CCC/C(C)=C/Cc1c(O)cc(/C=C/c2ccc(F)cc2)cc1O,17,88,68,11,2480,Not Active,2320,6,,,,
CC(C)=CCC/C(C)=C/Cc1c(O)cc(/C=C/c2ccc(O)cc2)cc1O,,,,8,1210,Not Active,110,8,,,,
CC(C)=CCC/C(C)=C/Cc1c(O)cc(/C=C/c2ccc(Cl)cc2)cc1O,,,,,7470,Not Active,540,,,,,
CC(C)=CCC/C(C)=C/Cc1c(O)cc(/C=C/c2cc(F)cc(F)c2)cc1O,,,,7,2080,Not Active,900,,,,,
CC(C)=CCC/C(C)=C/Cc1c(O)cc(/C=C/c2ccc(C(F)(F)F)cc2)cc1O,,,,,3330,Not Active,8100,,,,,
CC(C)=CCC/C(C)=C/Cc1c(O)cc(/C=C/c2ccccc2)cc1O [AMORPHASTILBOL],,66,83,5,1520,Not Active,850,12,Active,Active,Active,
CC(C)=CCC/C(C)=C/Cc1c(O)cc(/C=C/c2ccc(C=O)cc2)cc1O,,35,27,,2820,Not Active,890,,,,,
COc1ccc(/C=C/c2cc(O)c(C/C=C(\C)CCC=C(C)C)c(O)c2)cc1,,63,66,14,2500,Not Active,630,19,,,,
CC(C)=CCC/C(C)=C/Cc1c(O)cc(/C=C/c2ccc(C#N)cc2)cc1O,,54,41,,3470,Not Active,1200,20,,,,
CC(C)=CCC/C(C)=C/Cc1c(O)cc(/C=C/c2cccc(C(F)(F)F)c2)cc1O,,,,5,1210,Not Active,530,4,,,Active,Active
CC(C)=CCC/C(C)=C/Cc1c(O)cc(/C=C/c2ccoc2)cc1O,34,87,98,5,2030,Not Active,650,6,,Active,,Active
CC(C)=CCC/C(C)=C/Cc1c(O)cc(/C=C/c2ccsc2)cc1O,,56,68,6,5410,Not Active,1010,14,,,,

# — ChEMBL document CHEMBL2029250 (Bioorg Med Chem Lett, 2012)
